The target in assay [1] is T1, Poly [ADP-ribose] polymerase tankyrase-1 (Homo sapiens, UniProt O95271).
T1 sequence (O95271 whole entry): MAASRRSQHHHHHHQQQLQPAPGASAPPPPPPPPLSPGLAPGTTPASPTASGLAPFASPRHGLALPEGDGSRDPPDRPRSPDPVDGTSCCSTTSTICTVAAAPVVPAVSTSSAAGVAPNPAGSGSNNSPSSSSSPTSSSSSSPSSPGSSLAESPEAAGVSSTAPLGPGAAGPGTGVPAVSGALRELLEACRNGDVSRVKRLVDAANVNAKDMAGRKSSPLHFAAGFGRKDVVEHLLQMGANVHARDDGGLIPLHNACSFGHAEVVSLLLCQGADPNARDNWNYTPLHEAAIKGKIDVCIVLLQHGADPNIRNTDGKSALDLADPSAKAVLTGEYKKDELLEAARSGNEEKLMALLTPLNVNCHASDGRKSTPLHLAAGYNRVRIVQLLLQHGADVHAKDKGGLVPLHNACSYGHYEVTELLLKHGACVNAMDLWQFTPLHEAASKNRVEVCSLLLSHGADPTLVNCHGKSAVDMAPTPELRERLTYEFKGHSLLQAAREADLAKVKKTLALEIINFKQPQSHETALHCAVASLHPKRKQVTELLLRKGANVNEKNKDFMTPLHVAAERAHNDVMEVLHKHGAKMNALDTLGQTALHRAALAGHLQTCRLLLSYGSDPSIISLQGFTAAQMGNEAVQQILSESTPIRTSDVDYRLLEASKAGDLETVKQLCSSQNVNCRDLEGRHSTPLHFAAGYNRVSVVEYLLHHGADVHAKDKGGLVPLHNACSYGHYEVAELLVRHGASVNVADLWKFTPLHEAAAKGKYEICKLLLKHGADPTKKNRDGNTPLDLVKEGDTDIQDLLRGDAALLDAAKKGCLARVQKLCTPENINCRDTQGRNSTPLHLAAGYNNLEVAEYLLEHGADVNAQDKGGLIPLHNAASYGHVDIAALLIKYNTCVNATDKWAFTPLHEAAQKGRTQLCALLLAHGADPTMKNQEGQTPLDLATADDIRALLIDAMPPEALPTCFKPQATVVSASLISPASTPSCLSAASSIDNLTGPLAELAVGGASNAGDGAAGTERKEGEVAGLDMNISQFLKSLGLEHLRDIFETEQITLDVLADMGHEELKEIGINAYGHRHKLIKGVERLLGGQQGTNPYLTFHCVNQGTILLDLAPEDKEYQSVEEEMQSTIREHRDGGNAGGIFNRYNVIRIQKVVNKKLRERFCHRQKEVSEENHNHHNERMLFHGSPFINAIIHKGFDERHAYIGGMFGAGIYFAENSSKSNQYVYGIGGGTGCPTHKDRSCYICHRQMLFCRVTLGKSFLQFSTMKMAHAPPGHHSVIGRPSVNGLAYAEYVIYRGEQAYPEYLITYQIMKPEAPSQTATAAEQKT
Kind of assay: Inhibition of N-terminal his-tagged human TNKS1 expressed in Escherichia coli Rosette2 (DE3).

Assay [2] deals with Poly [ADP-ribose] polymerase 1 (Homo sapiens, UniProt P09874). Nature of the assay: Inhibition of N-terminal his-tagged human PARP1 expressed in Escherichia coli Rosette2 (DE3).
Another assay has as its system HeLa. Nature of the assay: Cytoprotective activity against human HeLa cells assessed as rescue of PARP10-induced cell death by measuring number of colonies treated for 8 to 10 days followed by compound replenishment for every 3 days by methylene blue staining based assay. The class given is functional.

Molecules are shown by their SMILES. pIC50: −log10 of the molar value.

Poly [ADP-ribose] polymerase 1, sequence (P09874 whole entry): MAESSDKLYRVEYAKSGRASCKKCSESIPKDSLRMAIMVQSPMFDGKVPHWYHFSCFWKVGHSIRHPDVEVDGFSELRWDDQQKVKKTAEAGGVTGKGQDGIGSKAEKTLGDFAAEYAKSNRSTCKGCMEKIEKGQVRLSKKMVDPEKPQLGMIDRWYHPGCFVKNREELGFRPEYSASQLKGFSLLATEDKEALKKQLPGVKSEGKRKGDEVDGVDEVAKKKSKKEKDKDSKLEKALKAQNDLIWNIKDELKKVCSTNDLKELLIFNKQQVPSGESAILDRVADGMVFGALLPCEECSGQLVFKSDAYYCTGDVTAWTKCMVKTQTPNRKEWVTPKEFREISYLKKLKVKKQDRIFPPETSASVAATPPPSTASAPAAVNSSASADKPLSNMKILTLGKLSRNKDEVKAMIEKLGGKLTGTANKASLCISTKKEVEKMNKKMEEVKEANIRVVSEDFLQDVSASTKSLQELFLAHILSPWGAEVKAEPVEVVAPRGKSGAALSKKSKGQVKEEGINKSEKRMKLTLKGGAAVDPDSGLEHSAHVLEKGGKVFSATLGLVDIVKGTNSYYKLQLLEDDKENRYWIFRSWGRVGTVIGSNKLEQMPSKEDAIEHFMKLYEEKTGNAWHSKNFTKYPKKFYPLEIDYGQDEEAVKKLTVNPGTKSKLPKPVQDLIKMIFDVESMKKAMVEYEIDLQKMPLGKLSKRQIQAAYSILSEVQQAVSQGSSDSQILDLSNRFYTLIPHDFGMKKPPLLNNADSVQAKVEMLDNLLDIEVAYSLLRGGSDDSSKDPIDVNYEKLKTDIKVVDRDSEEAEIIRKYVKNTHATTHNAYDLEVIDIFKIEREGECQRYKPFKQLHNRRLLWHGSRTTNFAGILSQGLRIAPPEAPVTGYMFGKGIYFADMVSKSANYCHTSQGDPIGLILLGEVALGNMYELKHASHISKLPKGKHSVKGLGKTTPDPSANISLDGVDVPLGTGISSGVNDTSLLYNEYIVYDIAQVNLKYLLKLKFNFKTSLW

On to `N#Cc1ccc(Oc2ccc(C(N)=O)cc2)cc1`, for which the figures for the pIC50 (in assay [1]; in assay [2]; in the assay with HeLa) were below 4.00, below 4.00 and 5.77, respectively.

Regarding `NC(=O)c1ccc(Oc2cccc(C(N)=O)c2)cc1`, the pIC50 in assay [1] is 4.68; in assay [2], below 4.00; in the assay with HeLa it was 5.74.
